Data taken from PubChem BioAssay AID330 (DTP/NCI, 2004).
Values joined by “and” are separate entries in the source; they are usually repeats but may differ in a detail not shown here. Equal entries are not always repeated. Inconclusive results and toxic doses are left out.

Tested on: P388 leukemia ip, CD2F1 mice, survival T/C
Experiment: NCI In Vivo Anticancer Drug Screen. Data for tumor model P388 Leukemia (intraperitoneal) in CD2F1 (CDF1) mice
Conditions: endpoint: median survival time, higher = longer survival
Outline: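 Mice carrying the transplanted tumor received test compound or vehicle. Survival was recorded in each group, and the value is the treated-group measurement divided by that of the vehicle-treated control group.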

[1] = dose: 50.0 mg/kg/injection, schedule: Q01DX009 (ip), vehicle: Klucel (hydroxypropylcellulose) (HPC)
[2] = dose: 100.0 mg/kg/injection, schedule: Q01DX009 (ip), vehicle: Klucel (hydroxypropylcellulose) (HPC)
[3] = dose: 50.0 mg/kg/injection, schedule: Q01DX009 (ip), vehicle: saline with Tween-80
[4] = dose: 100.0 mg/kg/injection, schedule: Q01DX009 (ip), vehicle: saline with Tween-80
[5] = dose: 50.0 mg/kg/injection, schedule: Q04DX003 (ip), vehicle: saline with Tween-80
[6] = dose: 100.0 mg/kg/injection, schedule: Q04DX003 (ip), vehicle: saline with Tween-80
[7] = dose: 200.0 mg/kg/injection, schedule: Q04DX003 (ip), vehicle: saline with Tween-80

Compound: CCOP(O)(=S)OCC.[Ce]
- T/C (dose: 100.0 mg/kg/injection, schedule: Q04DX003 (ip), vehicle: Klucel (hydroxypropylcellulose) (HPC)): 99 % of control
- T/C (dose: 200.0 mg/kg/injection, schedule: Q04DX003 (ip), vehicle: Klucel (hydroxypropylcellulose) (HPC)): 100 % of control
- T/C (dose: 400.0 mg/kg/injection, schedule: Q04DX003 (ip), vehicle: Klucel (hydroxypropylcellulose) (HPC)): 93 % of control

Compound: CCOC(=O)NN(C(=O)OCC)C(=C(C1CCCCC1)N1CCOCC1)N(NC(=O)OCC)C(=O)OCC
- T/C [1]: 95 % of control
- T/C [2]: 98 % of control
- T/C (dose: 200.0 mg/kg/injection, schedule: Q01DX009 (ip), vehicle: Klucel (hydroxypropylcellulose) (HPC)): 94 % of control

Compound: COC(=O)C1Cc2c([nH]c3ccccc23)C(C)(C)N1 (centres undefined)
- T/C (dose: 25.0 mg/kg/injection, schedule: Q01DX009 (ip), vehicle: suspension in saline): 99 % of control
- T/C (dose: 50.0 mg/kg/injection, schedule: Q01DX009 (ip), vehicle: suspension in saline): 93 % of control
- T/C (dose: 100.0 mg/kg/injection, schedule: Q01DX009 (ip), vehicle: suspension in saline): 93 % of control

Compound: NCc1cccn1OCc1ccccc1
- T/C (dose: 60.0 mg/kg/injection, schedule: Q01DX005 (ip), vehicle: saline with Tween-80): 100 % of control
- T/C (dose: 120.0 mg/kg/injection, schedule: Q01DX005 (ip), vehicle: saline with Tween-80): 106 % of control
- T/C (dose: 240.0 mg/kg/injection, schedule: Q01DX005 (ip), vehicle: saline with Tween-80): 104 % of control

Compound: O/N=C/c1c(-c2ccccc2)nc2n1CCS2
- T/C (dose: 100.0 mg/kg/injection, schedule: Q04DX002 (ip), vehicle: Klucel (hydroxypropylcellulose) (HPC)): 101 % of control
- T/C (dose: 200.0 mg/kg/injection, schedule: Q04DX002 (ip), vehicle: Klucel (hydroxypropylcellulose) (HPC)): 99 % of control
- T/C (dose: 400.0 mg/kg/injection, schedule: Q04DX002 (ip), vehicle: Klucel (hydroxypropylcellulose) (HPC)): 98 % of control

Compound: O=C1NC(c2ccccc2)(c2ccccc2)C(=O)N1CN1CCN(CN2C(=O)NC(c3ccccc3)(c3ccccc3)C2=O)CC1
- T/C (dose: 25.0 mg/kg/injection, schedule: Q01DX001 (ip), vehicle: saline with Tween-80): 100 % of control
- T/C (dose: 50.0 mg/kg/injection, schedule: Q01DX001 (ip), vehicle: saline with Tween-80): 95 % of control
- T/C (dose: 100.0 mg/kg/injection, schedule: Q01DX001 (ip), vehicle: saline with Tween-80): 90 % of control

Compound: Cc1cc2c(c3ncccc13)OCN(Cc1ccc(Cl)cc1)C2
- T/C [3]: 94 % of control
- T/C [4]: 95 % of control
- T/C (dose: 200.0 mg/kg/injection, schedule: Q01DX009 (ip), vehicle: saline with Tween-80): 94 % of control

Compound: COc1ccc(CC(=O)c2ccc3c(c2O)C=CC(C)(C)O3)cc1OC
- T/C (dose: 50.0 mg/kg/injection, schedule: Q01DX005 (ip), vehicle: saline with Tween-80): 98 % of control
- T/C (dose: 100.0 mg/kg/injection, schedule: Q01DX005 (ip), vehicle: saline with Tween-80): 99 % of control
- T/C (dose: 200.0 mg/kg/injection, schedule: Q01DX005 (ip), vehicle: saline with Tween-80): 89 % of control

Compound: O=S(=O)(O)c1cc(N=C=S)ccc1/C=C/c1ccc(N=C=S)cc1S(=O)(=O)O
- T/C (dose: 25.0 mg/kg/injection, schedule: Q01DX005 (ip), vehicle: saline): 108 % of control and 110 % of control

Compound: COc1ccc(/C=N/Nc2ccc([N+](=O)[O-])cc2[N+](=O)[O-])cc1
- T/C [5]: 93 % of control
- T/C [6]: 94 % of control
- T/C [7]: 88 % of control
- T/C (dose: 400.0 mg/kg/injection, schedule: Q04DX003 (ip), vehicle: saline with Tween-80): 91 % of control

Compound: COc1cc2c(cc1O)C(=O)CCC(C(=O)O)=C2
- T/C [4]: 92 % of control

Compound: N/C(=N\N=C/c1ccccc1)NN(Cc1ccccc1)N=O
- T/C (dose: 25.0 mg/kg/injection, schedule: Q01DX005 (ip), vehicle: Klucel (hydroxypropylcellulose) (HPC)): 100 % of control
- T/C (dose: 50.0 mg/kg/injection, schedule: Q01DX005 (ip), vehicle: Klucel (hydroxypropylcellulose) (HPC)): 92 % of control
- T/C (dose: 100.0 mg/kg/injection, schedule: Q01DX005 (ip), vehicle: Klucel (hydroxypropylcellulose) (HPC)): 94 % of control

Compound: O=C1CC2NC(=O)C(CCCCN1)NC2=O (centres undefined)
- T/C (dose: 1.5 mg/kg/injection, schedule: Q01DX009 (ip), vehicle: Klucel (hydroxypropylcellulose) (HPC)): 100 % of control
- T/C (dose: 3.0 mg/kg/injection, schedule: Q01DX009 (ip), vehicle: Klucel (hydroxypropylcellulose) (HPC)): 99 % of control
- T/C (dose: 6.0 mg/kg/injection, schedule: Q01DX009 (ip), vehicle: Klucel (hydroxypropylcellulose) (HPC)): 97 % of control
- T/C (dose: 12.0 mg/kg/injection, schedule: Q01DX009 (ip), vehicle: Klucel (hydroxypropylcellulose) (HPC)): 109 % of control

Compound: NC(=O)OCCCCOC(N)=O
- T/C [1]: 100 % of control
- T/C [2]: 98 % of control

Compound: CC(C)COP(=O)(OCC(C)C)OCC(C)C
- T/C (dose: 25.0 mg/kg/injection, schedule: Q01DX009 (ip), vehicle: saline with Tween-80): 100 % of control
- T/C [3]: 109 % of control
- T/C [5]: 100 % of control
- T/C [6]: 90 % of control
- T/C [7]: 95 % of control
